Measurements: US20220380331A1, “TREATMENT OF CONDITIONS OF THE NERVOUS SYSTEM” (priority 2019, published 2022)

Assays:
[1] = Solubility in aqueous solution; assay type: physicochemical
From the text: The inventors hypothesised that since the hydroxyl functional groups required for activity were not altered when designing the PNNi analogues, they should retain the capacity to potently reduce PNNs.

PNN-HEK293 cells = test: Immunocytochemistry of PNN formation (WFA) with PNNi analogues; assay type: cell-based, human; details: 0.5 mM and 1 mM, 3 days in vitro
Procedure: To compare the efficacy of PNNi, JD009, and JD013 in reducing PNN formation, immunocytochemistry was conducted using the N-acetylgalactosamine-binding lectin WFA to label PNNs. PNN-HEK293 cells were exposed to 0.5 mM and 1 mM of the compounds for 3 days in vitro. […] Quantification of WFA fluorescence intensity per cell was derived in matched regions of interest (ROI) and normalising overall WFA fluorescence intensity to cell number.

SMILES	solubility relative to PNNi [1]	PNN morphology and expression (WFA fluorescence intensity per cell) (PNN-HEK293 cells)
CN(C)Cc1cc(=O)oc2cc(O)ccc12 [JD009]	increased solubility	altered PNN expression
O=c1cc(CN2CCOCC2)c2ccc(O)cc2o1 [JD013, 7-hydroxy-4-[(morpholin-4-yl)methyl]-2H-1-benzopyran-2-one]	increased solubility	altered PNN expression
